Data as given in PMC10266688 (PLOS ONE, 2023).
Like-named read-outs stand apart in the source and are kept apart here.

Experiments:
TOV21G and ES2 cells = test: Annexin V apoptosis assay; details: 12 h
[1] = Single dose pharmacokinetics in CD1 mice (IV, IP, PO), plasma LC-MS/MS; type: in vivo, mouse; details: for Plasma concentration: individual (Group A)
Method: For single dose pharmacokinetic studies, plasma samples (40 μL) were mixed with 200 μL of a water-methanol mixture 1:9, v/v containing the internal standard elacridar at 400 ng/mL. After mixing by pipetting and centrifuging for 4 min at 6000 rpm, 1 μL of each supernatant was injected into LC-MS/MS system. […] Mobile phase A was acetonitrile/water (5:95, v/v) containing 1% formic acid, and mobile phase B was acetonitrile containing 0.1% formic acid. The gradient was initiated with mobile phase B at 15% and was held at 15% for 0.9 minutes with a flow rate of 0.4 mL/min, then increased to 100% and held for 0.1 minutes, and finally returned back to 15% mobile phase B and allowed to equilibrate until 2.2 minutes. […] The lower limit of quantitation (LLOQ) in plasma was 50 ng/mL.
Pharmacokinetic parameters were calculated from mean concentration-time data using non-compartmental methods in Phoenix WinNonlin version 8.3 (Certara, Princeton, NJ). Concentrations after the time 0 sample that were below the LLOQ were imputed with ½ that value. Any concentration that was determined to be an outlier by the Grubbs’s outlier test were excluded from analysis. The maximum plasma concentration (Cmax) and time to Cmax (Tmax) were the observed values. The AUClast was calculated using the log-linear trapezoidal method. AUC was extrapolated to infinity (AUCINF) by dividing the last quantifiable concentration by the terminal disposition rate constant (λz). The λz was determined from at least 3 points on the slope of the terminal phase of the concentration-time profile. The terminal half-life (T1/2) was determined by dividing 0.693 by λz. Apparent clearance (Cl/F) was calculated by dividing the dose administered by AUCINF. Apparent volume of distribution (V/F) was calculated by dividing Cl/F by λz. […] The oral and IP bioavailability was calculated as: F(%)={DoseIV×AUC(0−∞)PO/DosePO×AUC(0−∞)IV}.100%
The Method of Bailer was used to estimate the variance of AUC given the calculated variance of the mean concentration at each time point. […]. In all cases, p < 0.05 was considered statistically significant.
This was followed by a more detailed pharmacokinetic study, in which CD1 (n = 4; […]. Nine time points for IV and IP (5, 15, 30, 60, 120, 240, 360, 480 and 1440 min) and eight time points for PO (15, 30, 60,120, 240, 360, 480 and 1440 min) administration were set for this pharmacokinetic study. Each of the time point treatment group included 4 animals. Mice were injected IP with 2,2,2-tribromoethanol (150 mg/kg) prior to drawing the blood in microtainers containing K3EDTA via retro-orbital bleeding. Blood samples were centrifuged 10 min at 3000 rpm. Brain samples (right lobe) were collected and weighted. All samples were immediately processed, flash-frozen and stored at -70°C until subsequent analysis. […] Pharmacokinetic parameters were calculated from mean concentration-time data using non-compartmental methods in Phoenix WinNonlin version 8.3 (Certara, Princeton, NJ)). Using the Method of Bailer, there was no different in dose normalized AUClast by any route of administration (S17 Table).

[2] = CD-1, mouse, in vivo, ip, 20 mg/kg, Plasma concentration
[3] = CD-1, mouse, in vivo, ip, 20 mg/kg, Plasma concentration, Mean
[4] = male CD1 mice, IV 5 mg/kg, 0 min
[5] = male, CD1, mouse, in vivo, ip, 20 mg/kg
[6] = male, CD1, mouse, in vivo, iv, 5 mg/kg
[7] = male, CD1, mouse, in vivo, iv, 5 mg/kg, Plasma concentration
[8] = male, CD1, mouse, in vivo, iv, 5 mg/kg, Plasma concentration, Mean
[9] = male, CD1, mouse, in vivo, po, 50 mg/kg
[10] = male, CD-1, mouse, in vivo, po, 50 mg/kg, Plasma concentration
[11] = male, CD-1, mouse, in vivo, po, 50 mg/kg, Plasma concentration, Mean

For `N#Cc1ccc(/C=C2/C(=O)/C(=C/c3ccc(C#N)cc3)C23CCNCC3)cc1` [Up284], the “apoptosis, Up284 in combination with cisplatin” value (TOV21G and ES2 cells) was “no indication of synergy”, the “time to clear from the bloodstream to a low steady state” value ([1]; CD1, mouse, in vivo) was 2 to 4 h and the concentration at 15 min [1, 2] was 2480 ng/mL. For the same compound, the concentration at 60 min [1, 2] was 2400 ng/mL, the concentration at 120 min [1, 2] was 1950 ng/mL and the concentration at 240 min [1, 2] was 1540 ng/mL. It also gave a concentration at 1440 min [1, 2] of 750 ng/mL, a concentration at 5 min [1, 3] of 899 ng/mL and a concentration at 15 min [1, 3] of 2180 ng/mL. It also gave a concentration at 30 min [1, 3] of 2460 ng/mL, a concentration at 60 min [1, 3] of 2400 ng/mL and a concentration at 120 min [1, 3] of 2140 ng/mL. For the same compound, the concentration at 240 min [1, 3] was 1740 ng/mL, the concentration at 360 min [1, 3] was 789 ng/mL and the concentration at 480 min [1, 3] was 731 ng/mL. For the same compound, the concentration at 1440 min [1, 3] was 610 ng/mL, the “Plasma concentration, Mean” value ([1]; CD-1 mice, IP 20 mg/kg, 0 min) was “BQL” and the Plasma concentration ([1]; CD-1 mice, IP 20 mg/kg, 0 min) was “BQL”. For the same compound, the “Plasma concentration, Mean” value ([1]; CD-1 mice, PO 50 mg/kg, 0 min) was “BQL”, the Plasma concentration ([1]; CD-1 mice, PO 50 mg/kg, 0 min) was “BQL” and the “adverse effects during PK study” value ([1]; IV 5, IP 20, PO 50 mg/kg) was “No obvious adverse effects”. For the same compound, the “dose normalized AUClast by route of administration” value ([1]; Method of Bailer) was “no different”, the “Plasma concentration, Mean” value [1, 4] was “BQL” and the Plasma concentration [1, 4] was “BQL”. The Plasma concentration ([1]; male CD1 mice, IV 5 mg/kg, 1440 min, class symbol) was “BQL”, the AUC(0-inf) [1, 5] was 69500 ng·h/mL and the AUC(0-t) [1, 5] was 23000 ng·h/mL. The Cmax [1, 5] was 2460 ng/mL, the Tmax [1, 5] was 0.5 h and the bioavailability [1, 5] was 78%. For the same compound, the half-life [1, 5] was 52.8 h, the k el [1, 5] was 3.65e-06 s⁻¹ and the AUC(0-inf) [1, 6] was 9770 ng·h/mL. For the same compound, the AUC(0-t) [1, 6] was 6580 ng·h/mL, the Cmax [1, 6] was 1510 ng/mL and the Vd [1, 6] was 10 L/kg. It also gave a half-life [1, 6] of 19 h, a k el [1, 6] of 1.01e-05 s⁻¹ and a concentration at 5 min [1, 7] of 1620 ng/mL. For the same compound, the concentration at 15 min [1, 7] was 1500 ng/mL, the concentration at 30 min [1, 7] was 1530 ng/mL and the concentration at 60 min [1, 7] was 793 ng/mL. It also gave a concentration at 120 min [1, 7] of 670 ng/mL, a concentration at 240 min [1, 7] of 504 ng/mL and a concentration at 360 min [1, 7] of 256 ng/mL. It also gave a concentration at 5 min [1, 8] of 1450 ng/mL, a concentration at 15 min [1, 8] of 1510 ng/mL and a concentration at 30 min [1, 8] of 1260 ng/mL. The concentration at 60 min [1, 8] was 800 ng/mL, the concentration at 120 min [1, 8] was 669 ng/mL and the concentration at 240 min [1, 8] was 421 ng/mL. For the same compound, the concentration at 360 min [1, 8] was 238 ng/mL, the concentration at 480 min [1, 8] was 190 ng/mL and the concentration at 1440 min [1, 8] was 116 ng/mL. It also gave an AUC(0-inf) [1, 9] of 22800 ng·h/mL, an AUC(0-t) [1, 9] of 15100 ng·h/mL and a Cmax [1, 9] of 1830 ng/mL. For the same compound, the Tmax [1, 9] was 0.25 h, the bioavailability [1, 9] was 23% and the half-life [1, 9] was 12.7 h. For the same compound, the k el [1, 9] was 1.51e-05 s⁻¹, the concentration at 30 min [1, 10] was 1460 ng/mL and the concentration at 60 min [1, 10] was 1560 ng/mL. The concentration at 120 min [1, 10] was 1650 ng/mL, the concentration at 360 min [1, 10] was 318 ng/mL and the concentration at 15 min [1, 11] was 1830 ng/mL. The concentration at 30 min [1, 11] was 1280 ng/mL, the concentration at 60 min [1, 11] was 1430 ng/mL and the concentration at 120 min [1, 11] was 1220 ng/mL. It also gave a concentration at 240 min [1, 11] of 798 ng/mL, a concentration at 360 min [1, 11] of 473 ng/mL and a concentration at 480 min [1, 11] of 589 ng/mL. It also gave a concentration at 1440 min [1, 11] of 425 ng/mL, a concentration at 240 min ([1]; male, mouse, in vivo, CD-1 mice, PO 50 mg/kg, 240 min, individual (Groups A-D), read-out: Plasma concentration) of 366 ng/mL and a concentration at 480 min ([1]; male, mouse, in vivo, CD-1 mice, PO 50 mg/kg, 480 min, individual (Groups A-D), read-out: Plasma concentration) of 376 ng/mL. It also gave a concentration at 5 min ([1]; mouse, in vivo, CD-1 mice, IP 20 mg/kg, 5 min, individual (Groups A-D), read-out: Plasma concentration) of 1060 ng/mL, a bioavailability ([1]; mouse, plasma, intraperitoneal, CD1 mice, IP 20 mg/kg vs IV 5 mg/kg, read-out: IP bioavailability) of 87% and a bioavailability ([1]; mouse, plasma, CD1 mice, PO 50 mg/kg vs IV 5 mg/kg, read-out: oral bioavailability) of 23%.
